Patent US20210196714A1, “COMPOSITIONS AND METHODS FOR TREATING DISORDERS CHARACTERIZED WITH ABERRANT RAS/MAPK SIGNALING” (Duke University, priority 2018, published 2021)
Entries after “also recorded” stand apart in the source; their conditions may differ.

Columns and labels:
pMEK1/2 = test: Western blot of pMEK1/2 in head lysate of 5 dpf embryos; assay type: in vivo, zebrafish; conditions: 100 nM or 500 nM
Procedure: FIG. 7: dmDf attenuates hyperactive MEK signaling in vivo. (a) Western blot analysis for the level of pMEK1/2 from the head lysate of 5 dpf zebrafish embryos. Depletion of kmt2d (lane 4) elevates the abundance of pMEK1/2 in comparison to control embryos (lane 1). […] (b) Summary of the relative levels of pMEK1/2 from three independent experiments. *p<0.05 (n=3). (c) kmt2d morphants were treated with serially increasing concentrations of dmDf. The embryos were scored for CE phenotypes as described earlier (n>25 for each concentration. (d) The distance between MK and CH cartilages was measured from the same embryos as in (c). *p<0.05; **p<0.01. Error bars show SEM (standard error of the mean).
The phenotypic rescue of the zebrafish KS models by dmDf predicts a successful attenuation of hyperactive MEK signaling. To test this hypothesis directly, experiments were conducted that suppressed kmt2d, harvested and pooled protein from embryo heads (n=20/condition) and measured the abundance of phosphorylated (activated) MEK1/2 (pMEK1/2).
Zebrafish larvae (5 dpf; n=20) were decapitated and heads were homogenized with RIPA buffer (50 mM NaCl, 1% NP40, 50 mM Tris-HCl pH 7.5, 0.1% SDS, 0.5% Na deoxycholate, 1 mM Na3VO4, and 1 mM NaF). […]

[1] = test system: kmt2d CRISPR mosaic mutants (F0); test: CE defects in kmt2d-CRISPR F0 mutants; assay type: in vivo, zebrafish; conditions: kmt2d-CRISPR F0, 100 nM; listed as dmDf
Description: Prior and current genetic zebrafish models of KS focused on the newly discovered rap1a/rap1b genes. However, from the perspective of clinical utility, dmDf should be efficacious in kmt2d mutants, since loss of function mutations of the human ortholog account for as much as 75% of KS (see, Ng, S. B. et al. Nat Genet 42, 790-3 (2010); Li, Y. et al. Hum Genet 130, 715-24 (2011); Lu, J., Mo, G., Ling, Y. & Ji, L. Mol Med Rep 14, 3641-5 (2016); Miyake, N. et al. Am J Med Genet A 161a, 2234-43 (2013)). Therefore, experiments supplemented the testing tools by creating a kmt2d CRISPR/Cas9 mutant. A guide RNA targeting exon 4 of kmt2d induced efficient (˜99%) Cas9-mediated genome editing (FIG. 8). […]
For convergence and extension (CE) phenotyping, embryos were scored as described (see, Leitch, C. C. et al. Nat Genet 40, 443-8 (2008)) at the 8-10 somite stage, and images were captured using an AZ100 microscope and NIS Elements software (Nikon). […] The distance between Meckel's (MK) and ceratohyal (CH) cartilages was measured on ventral bright field images with Image J (NIH). […] Fluorescence signal on embryo heads was imaged with the Nikon AZ100 microscope and DS-Qi1MC digital camera using […] Z-stacks to generate extended depth of focus images. Cell numbers were quantified using the ImageJ ICTN plugin (NIH). […]

[2] = test system: zebrafish kmt2d morphants; test: Rescue of convergent-extension (CE) phenotype in kmt2d morphants; assay type: in vivo; conditions: dose response

CC(C)c1nc(-c2cccc(NS(=O)(=O)c3c(F)cccc3F)c2F)c(-c2ccnc(N)n2)s1 [Compound 8, desmethyl-Dabrafenib]
abundance of pMEK1/2 (pMEK1/2; kmt2d suppressed, 5 dpf heads, listed as dmDf): attenuates hyperactivation of MEK1/2; also recorded: restored the abundance of pMEK1/2 to levels indistinguishable from wild type embryos
abundance of pMEK1/2 (pMEK1/2; uninjected embryos): neither concentration had an appreciable effect
CE defects [1]: ameliorates the CE defects; also recorded: ameliorated significantly
CE defects at 50 nM and 100 nM doses ([2]; 50 and 100 nM): Significant rescue
CE rescue at dosages beyond 100 nM ([2]; above 100 nM up to 1 μM): higher dosages did not improve efficacy any further
